Results from the NIST ThermoML archive (doi:10.1016/j.tca.2018.03.002).
± gives the expanded uncertainty stated by the source.

Conditions: Crystal; DTA

| Normal melting temperature | SMILES |
| --- | --- |
| 16.80 ± 6 °C | CC(=O)O [acetic acid] |
| -4.50 ± 4 °C | CCCC(=O)O [butanoic acid] |
| 9.70 ± 8 °C | O=CO [formic acid] |
| -21.20 ± 2 °C | CCC(=O)O [propanoic acid] |
| 0.00 ± 2 °C | O [water] |
